Tested on: human bone marrow MSC
Assay: Microarray gene expression analysis of MSC (Illumina Human HT12 Expression BeadChip)
Format: cell-based
Conditions: Tre(+) 250 μg/mL, 24 h
Description: Human bone marrow MSC were expanded and seeded into six (6) T225 flasks using standard growth medium (Table 1). At 95-99% confluency, cells were thoroughly washed with PBS. Three (3) flasks were replenished with basal media containing 250 μg/mL treprostinil, (+)Tre, and the remaining three (3) flasks were replenished with unsupplemented basal media, (−)Tre. After 24 hours of culture, representative images were captured from (+) Tre and (−) Tre cultures. Conditioned media was collected from each replicate, divided into two samples of appropriate volumes, and analyzed separately for: 1) secreted proteins (Myriad RBM InflammationMAP® 1.0) and 2) exosome RNA content. Cells were lysed directly from culture flasks, processed for total RNA isolation, and analyzed for gene expression by microarray (Illumina Human HT12 Expression BeadChip). Microarray gene expression analysis was also performed on MSC from cultures without (−) or with (+) 250 ug/mL treprostinil. Three (3) biological replicates from each condition were analyzed. Of the 77,612 sequences identified among all replicates, only 24,273 were detected above the arbitrary background of 50 counts. 2,984 RNA sequences were unique to Tre(−) cultures, while 1,781 RNA sequences were unique to Tre(+) cultures (panel A). Genes detected in both conditions were further analyzed for differential expression (panel). […] Genes that are expressed only in Tre(−) cultures (that is to say, completely turned off in the Tre(+) cultures) are shown in Table 5.

CCCCC[C@H](O)CC[C@@H]1[C@H]2Cc3cccc(OCC(=O)O)c3C[C@H]2C[C@H]1O [treprostinil]
CLDN11 (NM_005602) expression, AVG (Tre(−) AVG 543): 13 counts
FAM198B (NM_001128424) expression, AVG (Tre(−) AVG 559): 15 counts
SLC7A8 (NM_182728) expression, AVG (Tre(−) AVG 613): 43 counts
ASPM (NM_018136) expression, AVG (Tre(−) AVG 625): 26 counts
CPA4 (NM_016352) expression, AVG (Tre(−) AVG 631): 53 counts
CELF1 (NM_001172640) expression, AVG (Tre(−) AVG 644): 59 counts
TCF12 (NM_207040) expression, AVG (Tre(−) AVG 648): 40 counts
SCN2A (NM_021007) expression, AVG (Tre(−) AVG 652): 20 counts
ASPH (NM_001164754) expression, AVG (Tre(−) AVG 658): 37 counts
CIT (NM_001206999) expression, AVG (Tre(−) AVG 661): 9 counts
VEGFA (NM_001171626) expression, AVG (Tre(−) AVG 664): 7603 counts
ANLN (NM_018685) expression, AVG (Tre(−) AVG 669): 57 counts
ST8SIA1 (NM_003034) expression, AVG (Tre(−) AVG 731): 45 counts
TPM1 (NM_001018007) expression, AVG (Tre(−) AVG 731): 36 counts
FAM84A (NM_145175) expression, AVG (Tre(−) AVG 733): 45 counts
SPATA20 (NM_022827) expression, AVG (Tre(−) AVG 733): 15 counts
PRRT2 (NM_145239) expression, AVG (Tre(−) AVG 744): 36 counts
LRRC17 (NM_001031692) expression, AVG (Tre(−) AVG 746): 22 counts
ANGPT1 (NM_001146) expression, AVG (Tre(−) AVG 780): 53 counts
ANK3 (NM_001204403) expression, AVG (Tre(−) AVG 811): 57 counts
SNX14 (NM_153816) expression, AVG (Tre(−) AVG 813): 18 counts
RCAN1 (NM_203418) expression, AVG (Tre(−) AVG 814): 8908 counts
OLFML1 (NM_198474) expression, AVG (Table 5) (Tre(−) AVG 816): 42 counts
RASA4 (NM_006989) expression, AVG (Tre(−) AVG 857): 11 counts
GDF5 (NM_000557) expression, AVG (Tre(−) AVG 883): 71 counts
MAP1B (NM_005909) expression, AVG (Tre(−) AVG 886): 42 counts
C13orf33 (NM_032849) expression, AVG (Tre(−) AVG 918): 19296 counts
MEOX2 (NM_005924) expression, AVG (Tre(−) AVG 982): 31 counts
MYLK (NM_053025) expression, AVG (Tre(−) AVG 991): 0 counts
SLC14A1 (NM_015865) expression, AVG (Table 5) (Tre(−) AVG 1036): 19 counts
FLG (NM_002016) expression, AVG (Tre(−) AVG 1052): 28 counts
ARPC4 (NM_001024960) expression, AVG (Tre(−) AVG 1150): 12 counts
RCAN2 (NM_001251974) expression, AVG (Tre(−) AVG 1218): 105 counts
EPB41L2 (NM_001199389) expression, AVG (Tre(−) AVG 1272): 113 counts
SLC2A12 (NM_145176) expression, AVG (Tre(−) AVG 1281): 105 counts
MEST (NM_002402) expression, AVG (Tre(−) AVG 1283): 85 counts
METTL7A (NM_014033) expression, AVG (Tre(−) AVG 1299): 109 counts
S100A4 (NM_002961) expression, AVG (Tre(−) AVG 1312): 125 counts
RBFOX2 (NM_001031695) expression, AVG (Tre(−) AVG 1316): 10 counts
ACTN1 (NM_001130005) expression, AVG (Tre(−) AVG 1459): 115 counts
OLFML2B (NM_015441) expression, AVG (Tre(−) AVG 1465): 70 counts
PRELP (NM_002725) expression, AVG (Tre(−) AVG 1474): 114 counts
COL21A1 (NM_030820) expression, AVG (Tre(−) AVG 1569): 57 counts
SLC14A1 (NM_015865) expression, AVG (Table 4) (Tre(−) AVG 1621): 88 counts
DDAH1 (NM_001134445) expression, AVG (Tre(−) AVG 1685): 133 counts
LMOD1 (NM_012134) expression, AVG (Tre(−) AVG 1722): 65 counts
OLFML1 (NM_198474) expression, AVG (Table 4) (Tre(−) AVG 1734): 140 counts
MXRA5 (NM_015419) expression, AVG (Tre(−) AVG 1759): 54 counts
DKFZp547J0510 (CDNA FLJ42650 fis, clone BRACE3027478) expression, AVG (Tre(−) AVG 1932): 148 counts
PLIN2 (NM_001122) expression, AVG (Tre(−) AVG 1976): 92927 counts
SYNPO2 (NM_001128933) expression, AVG (Tre(−) AVG 2551): 104 counts
ASPH (NM_004318) expression, AVG (Tre(−) AVG 2719): 1 counts
SREBF1 (NM_001005291) expression, AVG (Tre(−) AVG 2936): 12 counts
SLC3A2 (NM_001013251) expression, AVG (Tre(−) AVG 3190): 33526 counts
PDE5A (NM_033430) expression, AVG (Tre(−) AVG 3361): 222 counts
MEST (NM_177525) expression, AVG (Tre(−) AVG 3552): 298 counts
RND3 (NM_005168) expression, AVG (Tre(−) AVG 4013): 51756 counts
ISLR (NM_005545) expression, AVG (Tre(−) AVG 5533): 548 counts
PALLD (NM_001166109) expression, AVG (Tre(−) AVG 9809): 753 counts
CXCL12 (NM_199168) expression, AVG (Tre(−) AVG 10574): 671 counts
CTGF (NM_001901) expression, AVG (Tre(−) AVG 23012): 741 counts
COL6A3 (NM_004369) expression, AVG (Tre(−) AVG 54326): 4635 counts

Reference: patent publication US12274684B2, “Treatment of vasculopathy with prostacyclin and mesenchymal stem cells” (United Therapeutics Corporation, priority 2013, dated 2025)
